# Source: patent US9220794B2, “Two-photon fluorescent probes for imaging of total sulfide in live cell and tissue, and quantitative estimation of total sulfide concentration using the same” (Korea University Research and Business Foundation, priority 2013, dated 2015)
# Assays:
# HeLa cells [1] = experiment: Two-photon excited fluorescence spectra of labeled HeLa cells; type: cell-based, human
# Description: Accordingly, it can be seen that HEPES/EtOH (1/1) has polarity similar to that of the cellular environment.
# This confirms again that HEPES/EtOH (1/1) is a good model of the cellular environment and HS^− can be detected by TPM using the compound of [Chemical Formula 2-6].
# HeLa human cervical carcinoma cells were acquired from the ATCC (Manassas, Va., USA). The cells were cultured in DMEM (WelGene, Inc., Seoul, Korea) supplemented with heat-inactivated 10% FBS (WelGene), penicillin (100 units/mL) and streptomycin ([…]).
# For labeling, the growth medium was removed and replaced with DMEM without FBS. The cells were incubated with the compound of [Chemical Formula 2-6] ([…]) for 30 minutes, washed 3 times with FBS-free DMEM and imaged.
# The TPM images were obtained with the DM IRE2 microscope (Leica) by exciting the probes with a mode-locked titanium-sapphire laser source (Coherent Chameleon, 90 MHz, 200 fs) set at a wavelength of 750 nm and an output power of 1380 mW, which corresponded to an average power of approximately 2 mW in the focal plane.
# [2] = Kinetic studies in solution: reaction of the probe with sulfide
# Source text: The reaction between the compound of [Chemical Formula 2-6] […] For example, the compound of [Chemical Formula 2-6] was synthesized from the reaction of the compound of [Chemical Formula 2-5] and HS^−. Also, precipitation of sulfur or sulfide was reported in the reaction between phenyl azide and Na2S.
# This followed pseudo first-order kinetics with kobs=2.89×10^−4 s^−1 (FIG. 1b).
# The k2 value calculated from the slope of the plot was 5.13 M^−1s^−1 (measured in HEPES buffer).
# Reactions of the compound of [Chemical Formula 2-6] (5 μM) with Na2S (100-500 μM) in HEPES buffer or HEPES/EtOH (1/1, pH 7.2) were followed by monitoring of the increase in the fluorescence of the compound of [Chemical Formula 2-5] at 525-650 nm using a luminescence spectrometer.
# The kinetic studies in a TP mode were conducted by the same procedure described above except that the TPEF was collected upon excitation at 750 nm.
# In all cases, the plots of −ln(F^∞2−F2) vs. t were linear with good correlations. The kobs values were obtained from the slopes of the plots and the K2 values were obtained from the slopes of the plots of kobs vs. [HS^−]. [HS^−] was calculated by assuming that all of the Na2S was converted to HS^− and H2S, that is, [Na2S]=[H2S]+[HS^−], and using the relationship [H2S]/[HS^−]=[H^+]/Ka=0.794 in HEPES/EtOH (1/1, pH=7.2).
# [3] = Selectivity for sulfide: ratiometric response (F2/F1) in the presence of various analytes
# Description: The ratio of fluorescence intensities (F2/F1) measured at a short wavelength (F1) and a long wavelength (F2) at 0, 60 and 120 min is shown. All the data were obtained at 37° C. in HEPES buffer. Excitation wavelengths for one-photon and two-photon processes were 370 nm (short wavelength) and 750 nm (long wavelength), respectively.
# To test whether the compound of [Chemical Formula 2-6] can selectively detect HS^− over other biologically relevant species, the ratiometric response of the compound of [Chemical Formula 2-6] was determined in the presence of various analytes.
# HeLa cells [4] = experiment: Cell viability, CCK-8 kit; type: cell-based, human; conditions: incubation condition
# HeLa cells [5] = experiment: Photostability of TPEF intensity in labeled HeLa cells; type: cell-based, human; conditions: continuous radiation of fs-pulses for 60 minutes
# Source text: These findings confirm that the compound of [Chemical Formula 2-6] can measure the total sulfide concentration in living cells by the kinetic method with minimum interference from cytotoxicity and photostability.
# rat colon tissue = experiment: Ratiometric TPM imaging (F2/F1) of rat colon slices; type: in vivo; conditions: basal, slices labeled with 20 μM 2-6
# Description: The utility of the compound of [Chemical Formula 2-6] was investigated in living tissues from a 5-week-old rat colon. The inventors were particularly interested in the mucosa, muscularis mucosae and submucosa because they are invaded in the early stage of tumor (FIG. 4c). Since it takes a long time to stain the tissues during which they may be deformed, excess amount (20 μM) of the compound of [Chemical Formula 2-6] was used to facilitate staining.
# Because the structure of the colon tissue is heterogeneous, TPEF intensities were acquired from 150 sections along the z-direction at a depth of about 90-170 μm using two detection windows (1 and 2) to visualize the overall sulfide distribution.
# Therefore, the sections were divided into two regions and they were assigned as mucosa (90-150 μm) and submucosa including the muscularis mucosae (151-170 μm).
# Male Sprague-Dawley rats (235-265 g) were divided into two groups (5-FU and control groups). In the 5-FU group, 150 mg/kg of 5-FU (SoloPak Laboratories, Franklin Park, Ill.) were intraperitoneally injected into the rats. The rats of the control group were injected with saline. Each group consisted of 4 rats.
# All the rats were injected between 9 pm and 12 midnight, were allowed free access to food and water and were housed in the same room with 8-hour cycles.
# 8 hours after the intraperitoneal injection, all the rats were sacrificed. Laparotomy was performed after anesthetizing the rats.
# Slices were prepared from the colon of the rats. The colon slices were cut into 2-cm long segments, opened by longitudinal incision and then treated with Dulbecco's phosphate-buffered saline (D-PBS; […]).
# The colon slices were incubated with the compound of [Chemical Formula 2-6] (20 μM) in D-PBS bubbled with 95% O2 and 5% CO2 at 37° C. The colon slices were then moved to glass-bottomed dishes, washed 3 times with D-PBS and observed under a confocal multiphoton microscope.
# TPEF intensities were collected using detection windows of 390-450 nm and 520-650 nm, with 110 sections at a depth of 90-150 μm (mucosa) and 40 sections at a depth of 151-170 μm (submucosa).
# Then ratiometric images were constructed from the TPEF intensities collected using the two detection window. The F2/F1 ratio was expressed as mean±SD and p was set to be smaller than 0.05.
smiles,measurement,setting,value
COCCOCCC1(CCOCCOC)c2cc(NC(=O)OCc3ccc(N=[N+]=[N-])cc3)ccc2-c2ccc(-c3nc4ccccc4s3)cc21 [Chemical Formula 2-6],"λ^flmax, maximum emission in cells",HeLa cells [1],450 nm
same,"k2, second-order rate constant of reaction with HS^−","[2]; HEPES buffer, slope of kobs vs. [HS^−]",5.13 M⁻¹ s⁻¹
same,"k2, second-order rate constant of reaction with HS^−","[2]; HEPES/EtOH (1/1, pH=7.2), calculated using pKa (H2S)=7.10",5.17 M⁻¹ s⁻¹
same,influence of p-dinitrobenzene (electron acceptor) on kobs,[2]; addition of p-dinitrobenzene,not influenced
same,"kobs, pseudo first-order rate constant","[2]; probe 5 μM + 100 μM Na2S, HEPES buffer, 37° C.",0.000289 s⁻¹
same,reactivity toward other biologically relevant species,"[3]; 10 mM GSH, 1 mM Cys, 1 mM 2-ME, RSS, RNS, ROS, Ala, Glu, metal ions",no reactivity
same,increase of relative fluorescence intensity ratio (F2/F1),"[3]; 100 mM Na2S (55.7 mM HS^−), HEPES buffer",110 fold
same,F2/F1 after deazidation,[3]; HEPES buffer,110
same,reactivity toward commercially available GSH,[3]; commercially available GSH,small reactivity
same,reactivity toward purified GSH,[3]; purified GSH,no reactivity
same,toxicity (CCK-8 kit),HeLa cells [4],negligible toxicity
same,photostability (decay of TPEF intensity),HeLa cells [5],high photostability
same,average emission ratio F2/F1,rat colon tissue; mucosa (90-150 μm),0.82±0.07
same,average emission ratio F2/F1,rat colon tissue; submucosa (151-170 μm),0.67±0.07
